Experimental data reported in patent US20240166649A1, “DIHYDROPYRIMIDINE COMPOUND, PREPARATION METHOD THEREFOR AND APPLICATION THEREOF” (Shanghai Visonpharma Co., Ltd., priority 2021, published 2024).

What was measured:
[1] = Cytotoxicity assay (CellTiter Glo); assay type: cell-based; conditions: human; HepG2.2.15 cells, five days post treatment
Protocol: The Invention Determined Cytotoxicity of the Compounds Against HepG2.2.15 Cells (Table 2)
HepG2.2.15 cells were seeded into 96-well plates (8000 cells per well) and cell viability was measured by the addition of 60 μL of CellTiter Glo reagent (Promega) five days post treatment with the compounds. Cell plates with CellTiter Glo added were shaken on a plate shaker for 20 min and then the chemiluminescence signal was stabilized at room temperature for 10 min. Chemiluminescence values were read using a microplate reader (Bio-TeK SYNERGY NEO2).
The concentration corresponding to 50% cytotoxicity (CC50) was fitted by graphpad prism software. The cytotoxicity was calculated by the formula: % Cytotoxicity=100−(chemiluminescence value of sample Well −average chemiluminescence value of blank medium column)/(average chemiluminescence value of DMSO column −average chemiluminescence value of blank medium column)*100

[2] = test system: HBV (hepatitis B virus) in HepG2.2.15 cells; experiment: Cell-based anti-viral activity assay (HBV DNA in supernatant by quantitative PCR); conditions: 120 h, anti-HBV activity, HepG2.2.15 cells, 5 days, read-out: EC50 (HepG2.2.15)
Protocol: Cell-Based Anti-Viral Activity Assay
The Invention determined the anti-HBV (hepatitis B virus) activity of compounds in HepG2.2.15 cells (Table 1).
HepG2.2.15 is a cell line stably transfected with the HBV genome. HepG2.2.15 cells were cultured in DMEM (1X) with 10% fetal bovine serum (Corning), 100 U penicillin (Gibico), 100 μg/mL streptomycin (Gibico), 250 μg/mL geneticin (Gibco) and GlutaMAXTM-I medium (Invitrogen).
HepG2.2.15 cells were seeded into 96-well plates (4×10^4 cells in 100 μL of medium per well) and incubated overnight at 37° C. The test compounds were weighed and prepared as 10 mM stock solution with DMSO. The stock solutions of the compounds were diluted by a gradient of 3.16 times with DMSO, and then diluted by a gradient of 3.16 times with medium for 50 times. Finally, the diluted compound solutions were added to the cell plate with a total volume of 200 μL and the final DMSO concentration was 1%. The 96-well culture plates loaded with drugs were transferred to an incubator at 37° C. for 5 days. […] nucleic acid releasing agent was added to 96-well PCR reaction plate, and 2 μL of cell supernatant or HBV quantitative standards were added to the corresponding Wells. Centrifuged the plates to fully mix, and incubated at room temperature for 10 min to fully release nucleic acid. Quantified HBV DNA content by fluorescent quantitative PCR (CFX Connect Real-Time System) using Sanxiang Bio hepatitis B virus fluorescent quantitative diagnostic kit.
The standard curve was established by taking the logarithm of the copy number (IU/ml) of the HBV standard sample (log 10) as the abscordinate and the corresponding CT value as the ordinate. The copy number of the sample was calculated according to the corresponding CT of the positive sample and the standard curve, and the percentage of inhibition rate was calculated as follows: • % Inhibition=100-100*(sample HBV copy number−high concentration reference compound column HBV copy number)/DMSO column HBV copy number−high concentration reference compound column HBV copy number).

Row | SMILES | CC50 at 5 days [1] [nM] | EC50 [2] [nM]
1 | CCOC(=O)C1=C(CN2CCN3C(=O)N(C45CC(C(=O)O)(C4)C5)C[C@@H]3C2)NC(c2nccs2)=N[C@H]1c1cccc(F)c1C [Compound 1, 3-((S)-7-(((S)-5-(Ethoxycarbonyl)-6-(3-Fluoro-2-Methylphenyl)-2-(Thiazol-2-Yl)-3,6-Dihydropyrimidin-4-Yl)Methyl)-3-Oxohexahydroimidazo[1,5-a]Pyrazin-2(3H)-Yl)Bicyclo[1.1.1]Pentane-1-Carboxylic Acid] | > 50000 | 33
2 | CCOC(=O)C1=C(CN2CCN3C(=O)N(C45CC(CO)(C4)C5)C[C@@H]3C2)NC(c2nccs2)=N[C@H]1c1cccc(F)c1C [Compound 2, Ethyl (S)-4-(3-Fluoro-2-Methylphenyl)-6-(((S)-2-(3-(Hydroxymethyl)Bicyclo[1.1.1]Pentan-1-Yl)-3-Oxohexahydroimidazo[1,5-a]Pyrazin-7(1H)-Yl)Methyl)-2-(Thiazol-2-Yl)-1,4-Dihydropyrimidine-5-Carboxylate] | > 50000 | 3
3 | CCOC(=O)C1=C(CN2CCN3C(=O)N(CC45CC(C(=O)O)(C4)C5)C[C@@H]3C2)NC(c2nccs2)=N[C@H]1c1cccc(F)c1C [Compound 5, 3-(((S)-7-(((S)-5-(Ethoxycarbonyl)-6-(3-Fluoro-2-Methylphenyl)-2-(Thiazol-2-Yl)-3,6-Dihydropyrimidin-4-Yl)Methyl)-3-Oxohexahydroimidazo[1,5-a]Pyrazin-2(3H)-Yl)Methyl)Bicyclo[1.1.1]Pentane-1-Carboxylic Acid] | > 50000 | 73
4 | CCOC(=O)C1=C(CN2CCN3C(=O)N(C45CC(C#N)(C4)C5)C[C@@H]3C2)NC(c2nccs2)=N[C@H]1c1cccc(F)c1C [Compound 17, Ethyl (S)-6-(((S)-2-(3-Cyanobicyclo[1.1.1]Pentan-1-Yl)-3-Oxohexahydroimidazo[1,5-a]Pyrazin-7(1H)-Yl) Methyl)-4-(3-Fluoro-2-Methylphenyl)-2-(Thiazol-2-Yl)-1,4-Dihydropyrimidine-5-Carboxylate] | > 50000 | 5
5 | CCOC(=O)C1=C(CN2CCN3C(=O)N(C45CC(CF)(C4)C5)C[C@@H]3C2)NC(c2nccs2)=N[C@H]1c1cccc(F)c1C [Compound 18, Ethyl (S)-4-(3-Fluoro-2-Methylphenyl)-6-(((S)-2-(3-(Fluoromethyl)Bicyclo[1.1.1]Pentan-1-Yl)-3-Oxohexahydroimidazo[1,5-a]Pyrazin-7(1H)-Yl)Methyl)-2-(Thiazol-2-Yl)-1,4-Dihydropyrimidine-5-Carboxylate] | > 50000 | 3
6 | CCOC(=O)C1=C(CN2CCN3C(=O)N(C45CC(C(=O)NS(C)(=O)=O)(C4)C5)C[C@@H]3C2)NC(c2nccs2)=N[C@H]1c1cccc(F)c1C [Compound 28, Ethyl (S)-4-(3-Fluoro-2-Methylphenyl)-6-(((S)-2-(3-((Methylsulfonyl)Carbamoyl)Bicyclo[1.1.1]Pentan-1-Yl)-3-Oxohexahydroimidazo[1,5-a]Pyrazin-7(1H)-Yl)Methyl)-2-(Thiazol-2-Yl)-1,4-Dihydropyrimidine-5-Carboxylate] | > 50000 | 21
7 | CCOC(=O)C1=C(CN2CCN3C(=O)N(C45CC(NS(=O)(=O)C6CC6)(C4)C5)C[C@@H]3C2)NC(c2nccs2)=N[C@H]1c1cccc(F)c1C [Compound 29, Ethyl (S)-6-(((S)-2-(3-(Cyclopropanesulfonamido)Bicyclo[1.1.1]Pentan-1-Yl)-3-Oxohexahydroimidazo[1,5-a]Pyrazin-7(1H)-Yl)Methyl)-4-(3-Fluoro-2-Methylphenyl)-2-(Thiazol-2-Yl)-1,4-Dihydropyrimidine-5-Carboxylate] | > 50000 | 6
8 | CCOC(=O)C1=C(CN2CCN3C(=O)N(C45CC(CO)(C4)C5)C[C@@H]3[C@H]2C(=O)O)NC(c2nccs2)=N[C@H]1c1cccc(F)c1C [Compound 33, (8S,8aR)-7-(((S)-5-(Ethoxycarbonyl)-6-(3-Fluoro-2-Methylphenyl)-2-(Thiazol-2-Yl)-3,6-Dihydropyrimidin-4-Yl)Methyl)-2-(3-(Hydroxymethyl)Bicyclo[1.1.1]Pentan-1-Yl)-3-Oxooctahydroimidazo[1,5-a]Pyrazine-8-Carboxylic Acid] | > 50000 | 202
9 | CCOC(=O)C1=C(CN2CCN3C(=O)N(C45CC(CC(=O)O)(C4)C5)C[C@@H]3C2)NC(c2nccs2)=N[C@H]1c1ccc(F)cc1Cl [Compound 35] | > 50000 | 28
10 | CCOC(=O)C1=C(CN2CCN3C(=O)N(C45CC(CC(=O)O)(C4)C5)C[C@@H]3C2)NC(c2nccs2)=N[C@H]1c1ccc(F)cc1C [Compound 37] | > 50000 | 18
11 | COC(=O)C1=C(CN2CCN3C(=O)N(C45CC(CC(=O)O)(C4)C5)C[C@@H]3C2)NC(c2nccs2)=N[C@H]1c1ccc(F)cc1Cl [Compound 38, 2-(3-((S)-7-(((R)-6-(2-Chloro-4-Fluorophenyl)-5-(Methoxycarbonyl)-2-(Thiazol-2-Yl)-3,6-Dihydropyrimidin-4-Yl)Methyl)-3-Oxohexahydroimidazo[1,5-a]Pyrazin-2 (3H)-Yl)Bicyclo[1.1.1]Pentane-1-Yl)Acetic Acid] | > 50000 | 43
12 | CCOC(=O)CC12CC(N3C[C@@H]4[C@@H](COC)N(CC5=C(C(=O)OCC)[C@H](c6cccc(F)c6C)N=C(c6nccs6)N5)CCN4C3=O)(C1)C2 [Compound 44, Ethyl (S)-6-(((8S,8aR)-2-(3-(2-Ethoxy-2-Oxoethyl)Bicyclo[1.1.1]Pentan-1-Yl)-8-(Methoxymethyl)-3-Oxohexahydroimidazo[1,5-a]Pyrazin-7(1H)-Yl)Methyl)-4-(3-Fluoro-2-Methylphenyl)-2-(Thiazol-2-Yl)-1,4-Dihydropyrimidine-5-Carboxylate] | > 50000 | 183
13 | CCOC(=O)C1=C(CN2CCN3C(=O)N(C45CC(NS(C)(=O)=O)(C4)C5)C[C@@H]3[C@H]2C(=O)O)NC(c2nccs2)=N[C@H]1c1cccc(F)c1C [Compound 46, (8S,8aR)-7-(((S)-5-(Ethoxycarbonyl)-6-(3-Fluoro-2-Methylphenyl)-2-(Thiazol-2-Yl)-3,6-Dihydropyrimidin-4-Yl)Methyl)-2-(3-(Methylsulfonamido)Bicyclo[1.1.1]Pentan-1-Yl)-3-Oxooctahydroimidazo [1,5-a]Pyrazine-8-Carboxylic Acid] | > 50000 | 61
14 | CCOC(=O)C1=C(CN2CCN3C(=O)N(C45CC(COC)(C4)C5)C[C@@H]3[C@H]2C(=O)O)NC(c2nccs2)=N[C@H]1c1cccc(F)c1C [Compound 47, (8S,8aR)-7-(((S)-5-(Ethoxycarbonyl)-6-(3-Fluoro-2-Methylphenyl)-2-(Thiazol-2-Yl)-3,6-Dihydropyrimidin-4-Yl)Methyl)-2-(3-(Methoxymethyl)Bicyclo[1.1.1]Pentan-1-Yl)-3-Oxooctahydroimidazo[1,5-a]Pyrazine-8-Carboxylic Acid] | > 50000 | 18
15 | CCOC(=O)C1=C(CN2CCN3C(=O)N(C45CCC(CC(=O)O)(CC4)C5)C[C@@H]3C2)NC(c2nccs2)=N[C@H]1c1ccc(F)cc1Cl [Compound 65, 2-(4-((S)-7-(((R)-6-(2-Chloro-4-Fluorophenyl)-5-(Ethoxycarbonyl)-2-(Thiazol-2-Yl)-3,6-Dihydropyrimidin-4-Yl)Methyl)-3-Oxohexahydroimidazo[1,5-a]Pyrazin-2(3H)-Yl)Bicyclo[2.2.1]Heptan-1-Yl)Acetic Acid] |  | 42
